Assay results taken from US20250255847A1, “[…]s: Novel Drugs for Triple Negative Breast Cancer” (SIMMARON RSEARCH INC, priority 2024, published 2025).

Legend:
HMEC cells = assay: Annexin V/PI staining in HMEC cells; format: cell-based; conditions: 25 nM
Method: FIG. 11 illustrates an embodiment of the present invention and illustrates SIM-1 and SIM-2 induced apoptosis in MDA-MB-468 TNBC cells, but not HMEC control cells. MDA-MB-468 cells were treated with increasing doses of (A) SIM-1 and (B) SIM-2 for 48 hrs followed by lactate dehydrogenase (LDH) release assay in the supernatants. The result was offset with cell-bound LDH and presented as a percent of DMSO control as discussed under method section. Half-maximal cytotoxicity or CT50 analyses were performed plotting maximum response as an index of increasing doses of (C) SIM-1 and (D) SIM-2. AnnexinV (green) and propidium iodide (red) dual-labeling were performed to evaluate apoptotic response in MDA-MB-468 cells once treated with increasing doses of (E) SIM-1 and (F) SIM-2 for 24 hrs. Nuclei were stained with DAPI. TUNEL assay was performed in MDA-MB-468 cells after treatment with 25 nM of (G) SIM-1. Brown-colored TUNEL bodies were visualized at cresyl violet-stained blue nuclei. (H) The number of TUNEL bodies were counted as a percent of 100 cresyl violet-stained blue cells. Ten independent images were counted for the quantification study. Similarly, SIM-2 was assessed for (I) TUNEL and (J) subsequent quantification analyses. One-way ANOVA was performed to test the significance of mean between groups at **p<0.01 and ****p<0.0001. […]

[1] = test system: Y705P STAT3 recruitment in IL6 promoter; assay: Chromatin immunoprecipitation of STAT3 response element in IL6 promoter; format: cell-based, human; conditions: 10 ng/mL EGF + 20 nM compound, 5 hrs, MDA-MB-468
Method: FIG. 9 illustrates an embodiment of the present invention and illustrates promoter recruitment assay of STAT3 in IL6 promoter. (A) MDA-MB-468 cells were treated with 5, 10, and 20 ng/mL doses of EGF for 5 hrs followed by immunoblot (IB) analyses of Y705 phospho and S727 phospho STAT3 in nuclear extracts. Histone 3 ([…]) IB was run as control. (B) EMSA analyses were performed in nuclear extracts of EGF (20 ng/mL)- and EGF+SIM-1 (20 nM)-treated MDA-MB-468 cells against the STAT3-specific oligonucleotide probe (Li-Cor bioscience; Cat #P/N: 829-07922) or SEQ ID NO: 1 and resolved in 6% DNA retardation gel (Invitrogen). […]
Third, to further confirm the promoter recruitment activity of Y705PSTAT3 in the IL6 promoter, chromatin immunoprecipitation assay of STAT3-response element in the IL6 promoter was performed using primer sets described under “Promoter analysis and Chromatin Immunoprecipitation (ChIP) assay” hereinabove. Briefly, MDA-MB-468 cells were incubated with 10 ng/mL EGF, EGF+SIM-1 (20 nM), and EGF+SIM-2 (20 nM) for 5 hrs followed by performing an immunoprecipitation (IP) of DNA-bound STAT3 with Y705P STAT3-specific antibody and then the precipitated DNA by PCR analysis was analyzed to identify STAT3 response element (˜121 bp long) in IL6 promoter.

Row | Structure (SMILES) | apoptosis in healthy normal cells (annexin V/PI) (HMEC cells) | promoter recruitment activity of Y705P STAT3 in IL6 promoter [1]
1 | O=C(O)CCC(=O)NCc1csc2ccc(Cl)cc12 [SIM-1, 4-[(5-chloro-1-benzothiophen-3-yl)methylamino]-4-oxobutanoic acid] | unable to induce apoptosis | significantly attenuated
2 | CCOC(=O)c1c(NC(C)=O)sc2c(Cl)c(/C=N/O)ccc12 [SIM-2, ethyl 2-acetamido-7-chloro-6-(hydroxyiminomethyl)-1-benzothiophene-3-carboxylate] | unable to induce apoptosis | significantly attenuated
